Ends that are not written are not given here. PEG = not defined here
What was measured:
vimentin = vimentin expression in SK-HEP-1 cells (ELISA); assay type: cell-based, human; details: SK-HEP-1, 10 μM, 24 hours, control group 1.2 ± 0.01
Description: (§1) SK-HEP-1 cells were cultured in vitro, cells in the logarithmic growth phase were collected, and the cells were seeded evenly in a 24-well plate at a density of 1-3×10^5 cells/well. The cells were cultured in a cell incubator for 4-5 h. PBS was added to the control group. PBS containing polypeptide or derivative thereof (N1-N12) was added to the treatment group. The final concentration of the polypeptide or derivative thereof in the well was 10 μM. After incubating for 24 hours, the cells were collected and the total protein was extracted. ELISA was used to detect the content of fibronectin in total protein.
The experimental method for testing the inhibition on the expression of vimentin in human liver adenocarcinoma cells (SK-HEP-1) by the polypeptide or derivative thereof (N1-N12) was as described in Example 19.

[1] = test system: human liver cancer cells (HepG2); test: scratch assay, migration of HepG2 cells; assay type: cell-based; details: HepG2, 10 μM, 48 hours; control group 71.01 ± 6.63
In short: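 HepG2 monolayers scratched, then cultured 48 h in 2% FBS medium with test polypeptides at 10 μM versus PBS control, triplicate wells. Migration rate (%) computed from original versus current scratch width in images.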

[2] = effect on coagulation function in mice (ACT); assay type: in vivo, C57BL/6J mice; details: 200 mg/kg tail vein once a day until Day 24, blood on Day 25; control group 73.50 ± 7.15
Description: C57BL/6J mice were used as experimental subjects (purchased from Chengdu Dashuo Experimental Animal Co., Ltd., male, weighing 16-17 g). Sterile saline or peptide drugs were injected via the tail vein once a day until Day 24. The mice in the control group were injected with sterile saline, and the mice in the administration groups (N1-N12) were injected with polypeptide drugs (200 mg/kg). There were three experimental animals in each group. On Day 25, the eyeballs were removed and blood ([…]) was taken. The coagulation function of the mice was detected by the Abbott i-STAT blood gas analyzer with the ACT test card.

[3] = test system: human oral epidermoid carcinoma KB cells; test: scratch assay, migration of KB cells; assay type: cell-based; details: 10 μM, 48 hours, control group 54.03 ± 4.21
In short: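 Monolayers of KB cells were scratched, washed with PBS, then cultured 48 hours in 2% FBS medium containing test polypeptide (10 μM) or PBS control, in triplicate wells. From images, migration rate (%) = (original − current scratch width)/original width × 100.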

[4] = test system: human breast cancer cells (MDA-MB-453); test: scratch assay, migration of MDA-MB-453 cells; assay type: cell-based; details: MDA-MB-453, 10 μM, 48 hours; control group 32.42 ± 2.04
In short: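 Confluent MDA-MB-453 monolayers were scratched, then treated with peptide at 10 μM in 2% FBS medium for 48 h, with a PBS control and triplicate wells. Migration rate (%) was taken as (original − current scratch width)/original width ×100 from images.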

[5] = test system: human non-small cell lung cancer cells (A549); test: scratch assay, migration of A549 cells; assay type: cell-based; details: A549, 10 μM, 48 hours; control group 75.31 ± 8.19
In short: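 Confluent A549 monolayers in 24-well plates were scratched, washed with PBS, then cultured 48 h in 2% FBS medium with peptide at 10 μM or PBS control, triplicate wells. Scratch width measured from images; migration rate (%) = (original − current width)/original width × 100.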

N-cadherin = N-cadherin expression in SK-HEP-1 cells (ELISA); assay type: cell-based, human; details: SK-HEP-1, 10 μM, 24 hours, control group 1.12 ± 0.03
Description: as §1
The experimental method for testing the inhibition on the expression of N-cadherin in human liver adenocarcinoma cells (SK-HEP-1) by the polypeptide or derivative thereof (N1-N12) was as described in Example 19.

[6] = test system: human lung cancer cells (A549) subcutaneous xenograft; test: lung cancer subcutaneous xenograft animal model, intratumoral injection; assay type: in vivo, mice (BALB/c-nu/nu); details: intratumoral 5 mg/kg once every other day, 10 days; for Weight of tumor (g) (mean ± SD): control 1.45 ± 0.15; for Volume of tumor (mm^3) (mean ± SD): control 1269.32 ± 115.39
Description: Experimental animals: 4-6 weeks old female immunodeficiency mice (BALB/c-nu/nu, Beijing Vital River Laboratory Animal Technology Co., Ltd.).
Subcutaneous xenograft animal model. The number of cells inoculated subcutaneously vin mice was about 2×10^6/200 μL. When the volume of the subcutaneous tumor was greater than 100 mm^3, the mice were randomly divided into groups and subjected to treatment. When the mass volume of the tumors in model control group reached 2000 mm^3 or the animal dies, the treatment ended. The animals were dissected, the tumors were taken out, and the weight and volume of the tumors were measured. During the period of the entire experiment, the mice were observed and the body weight was measured every other day.
The method used for the drug efficacy test in the animal model of the subcutaneous xenograft derived from lung cancer cells was as described in Example 5. The tumor cells were human lung cancer cells (A549), and the route of administration was intratumoral injection. There were two groups: the model control group and the polypeptide or its derivative treatment group (N1-N12). The drug dosage of the treatment group was 5 mg/kg, once every other day and the treatment time was 10 days.
The procedure of the efficacy test in this example, route and dosage of administration were the same as in Example 9. The peptides used in the experiment were N13-N32. The treatment time was 20 days.

[7] = test system: human breast cancer cells (MCF-7); test: scratch assay, migration of MCF-7 cells; assay type: cell-based; details: MCF-7, 10 μM, 48 hours; control group 30.97 ± 1.79
In short: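 MCF-7 monolayers scratched, then cultured 48 hours in 2% FBS medium with test peptide at 10 μM versus PBS control, triplicate wells. Migration rate (%) = (original − current scratch width)/original width × 100, measured from images.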

fibronectin = fibronectin expression in SK-HEP-1 cells (ELISA); assay type: cell-based, human; details: SK-HEP-1, 10 μM, 24 hours, control group 1.62 ± 0.09
Description: as §1

| Substance | Relative protein level (mean ± SD, P), vimentin (vimentin) | Migration rate (%) (mean ± SD, P) [1] | Activated clotting time (s) (mean ± SD) [2] | Migration rate (%) (mean ± SD, P) [3] | Migration rate (%) (mean ± SD, P) [4] | Migration rate (%) (mean ± SD, P) [5] | Relative protein level (mean ± SD, P), N-cadherin (N-cadherin) | Weight of tumor (g) (mean ± SD) [6] | Volume of tumor (mm^3) (mean ± SD) [6] | Migration rate (%) (mean ± SD, P) [7] | Relative protein level (mean ± SD, P), fibronectin (fibronectin) |
| --- | --- | --- | --- | --- | --- | --- | --- | --- | --- | --- | --- |
| N1: polypeptide with the amino acid sequence set forth in SEQ ID NO: 1 (YRVRFLAKENVTQDAEDN) | 0.97 ± 0.03, *** | 17.42 ± 7.70,*** % | 73.64 ± 9.31 | 7.49 ± 2.99,*** % | 13.05 ± 2.05,** % | 18.26 ± 8.77,** % | 0.83 ± 0.04,*** | 0.87 ± 0.08 | 851.64 ± 67.38 | 11.18 ± 2.89,** % | 1.3 ± 0.02,** |
| N2: SEQ ID NO: 1 with deletion of one amino acid (position 18) at the carboxyl terminal (YRVRFLAKENVTQDAED) | 0.91 ± 0.03, **** | 13.05 ± 6.50,*** % | 74.82 ± 9.62 | 6.82 ± 3.25,*** % | 12.96 ± 3.13,** % | 47.79 ± 3.12,** % | 0.93 ± 0.04,** | 0.86 ± 0.13 | 809.89 ± 129.93 | 12.32 ± 2.26,** % | 1.23 ± 0.08,** |
| N3: SEQ ID NO: 1 with deletion of position 18 and PEG modification at the amino terminal ({PEG}-YRVRFLAKENVTQDAED; reading uncertain) | 0.96 ± 0.05, ** | 17.57 ± 6.98,*** % | 72.55 ± 8.27 | 9.95 ± 2.19,*** % | 13.04 ± 3.5,** % | 51.86 ± 2.15,** % | 0.87 ± 0.09,* | 0.79 ± 0.18 | 712.59 ± 200.32 | 10.39 ± 2.07,** % | 1.26 ± 0.09,** |
| N4: SEQ ID NO: 1 with deletion of positions 15-18 and positions 1-3 (RFLAKENVTQD) | 0.95 ± 0.03, *** | 25.37 ± 6.11,*** % | 73.64 ± 8.12 | 5.96 ± 2.32,*** % | 15.74 ± 4.83,* % | 51.53 ± 3.72,* % | 0.93 ± 0.04,** | 0.63 ± 0.12 | 740.79 ± 140.87 | 13.6 ± 2.28,** % | 1.23 ± 0.11,** |
| N5: SEQ ID NO: 1 with addition of one amino acid at the carboxyl terminal and deletion of positions 1-3 (RFLAKENVTQDAEDNC) | 0.87 ± 0.03, **** | 19.84 ± 5.04,*** % | 72.91 ± 8.04 | 9.62 ± 3.84,*** % | 14.74 ± 3.23,** % | 46.66 ± 5.92,** % | 0.83 ± 0.04,*** | 0.69 ± 0.14 | 738.11 ± 167.03 | 14.50 ± 2.66,** % | 1.3 ± 0.11,* |
| N6: SEQ ID NO: 1 with deletion of four amino acids at the carboxyl terminal (positions 15-18) (YRVRFLAKENVTQD) | 0.81 ± 0.03, **** | 16.65 ± 6.70,*** % | 74.09 ± 8.51 | 15.79 ± 3.16,** % | 13.01 ± 3.14,** % | 40.67 ± 3.66,** % | 0.83 ± 0.04,*** | 0.79 ± 0.18 | 769.35 ± 155.34 | 15.69 ± 4.09,* % | 1.33 ± 0.04,** |
| N7: SEQ ID NO: 1 with addition of one amino acid at the carboxyl terminal and substitution A15R (YRVRFLAKENVTQDREDNC) | 1 ± 0.03, *** | 11.54 ± 9.00,*** % | 73.27 ± 8.43 | 11.11 ± 3.86,*** % | 12.64 ± 2.73,** % | 48.64 ± 3.10,** % | 0.73 ± 0.06,*** | 0.81 ± 0.16 | 741.86 ± 147.66 | 12.59 ± 3.23,** % | 1.36 ± 0.04,* |
| N8: SEQ ID NO: 1 with deletion of positions 15-18 and positions 3, 4 and 11 (YRFLAKENTQD) | 0.81 ± 0.03, **** | 18.65 ± 6.88,*** % | 74 ± 8.92 | 11.55 ± 1.62,*** % | 9.44 ± 2.09,*** % | 32.62 ± 5.83,** % | 0.7 ± 0.06,*** | 0.68 ± 0.11 | 783.99 ± 69.19 | 11.56 ± 2.35,** % | 1.33 ± 0.11,* |
